Experimental data reported in patent publication US6458585B1, “Cytokine-free culture of dendritic cells” (Nexell Therapeutics Inc., priority 1996, dated 2002).

What was measured:
Assay type in all cases: cell-based, human
[1] = test system: adherent PBMNC; experiment: S100 immunohistochemistry of plastic adherent cells cultured with non-cytokine additives; conditions: for percentage of S100+ cells: without GM-CSF added to additives
Description: Immunocytochemical staining: PBS (phosphate buffered saline) was made by dissolving 5 PBS tablets into 1000 ml millipore water. Cytospin slides were soaked in PBS. […] Slides were rinsed with PBS one time. Non-specific binding sites were blocked by incubating with normal serum matching source of secondary antibody (i.e. if secondary antibody is biotinylated goat-anti-mouse, used normal goat serum) at room temp. for 15 min. in a humidified environment. Excess serum was shaken from slides and placed 100 ul of primary antibody on slide, making sure cells are covered with liquid and incubated in humidified environment, room temp, for one hour. Negative control slides were incubated with normal serum for this hour. Slides were rinsed 3 times with PBS. Slides were incubated with biotinylated antibody reactive against the primary antibody (i.e. if primary antibody is mouse-anti-human, use a biotinylated goat-anti-mouse antibody) for 1 hour in humidity. Slides were rinsed 3 times with PBS. Slides were incubated with streptavidin-peroxidase, 2 drops/slide, for 30 min. in humidity. Slides were rinsed 3 times with PBS.
(§1) Chromagen solution was made with 5 ml millipore water+2 drops of chromagen buffer+1 drop of concentrated chromagen+1 drop of substrate, and 4-5 drops were added to each slide. […] Slides were counterstained with hematoxylin for about 5 min, or until cell nuclei were stained purple. Cells were rinsed with tap water and allowed to air dry. Slides were covered with crystal mount and oven dried at 80 degrees for 15 min. Slides were allowed to cool, then coversliped with mounting medium.
Enrichment and Culture of Adherent Cells Using Polystyrene Tissue Culture Plates: PBMNC were resuspended in culture media (X-VIVO 15™+10% autologous serum) at 2×10^6 cells/ml. Cells were placed into 48 well polystyrene tissue culture plates […] and incubated for 2 hours in a 5% CO2, ambient O2, 37° C. humidified incubator. Non-adherent cells were removed from the plates then wells were rinsed with X-VIVO 15™ containing no serum. Cells remaining in the wells were adherent cells. These cells were cultured by adding 2 ml of X-VIVO 15™ to each well plus GM-CSF and IL-4 at final concentrations of 50 ng/ml and 1000 U/ml or the following: cAMP at 0.5 mM, dibutyryl cAMP at 0.1 mM, NaF at 0.25 mM, theophylline at 0.5 mM, PGE at 0.1 mM, Vitamin D3 at 2.5 uM, Vitamin E at 0.1%, Retinoic Acid at 10^−6 M, PMA at 1 pM, Linoleic Acid at 5 ug/ml, or Ca^++ Ionophore at 10 mM. Furthermore, cells were also cultured with the above non-cytokine additives plus GM-CSF at 50 ng/ml. Cells were cultured in a 5% CO2, ambient O2, 37° C. humidified incubator for 7 days.
(§2) Cytospin slide preparation, Wright-Geimsa and immunohistochemical staining of the cultured cells were conducted as described in Example 1 and 2 above. Mixed lymphocyte reactions (MLR's) were setup using T cells (responders) and dendritic cell enriched cultures (stimulators) from bulk PBMNC cultures, as described above in Example 1.
Results: In the set of experiments using plastic adherent cells grown in polystyrene tissue culture plates, a Day 0 analysis of the cells was not performed. However, these cultures were analyzed for the presence of DC on days 4 and 7. Analysis perfomed were cell counts, viability via propidium iodide, morphology under Wright-Geimsa staining, and immunohistochemical staining using an anti-S100 antibody.

[2] = test system: Bulk PBMNC; experiment: S100+ cells in bulk PBMNC cultures with non-cytokine additives; conditions: day 7; average
Description: Immunocytochemical staining: PBS (phosphate buffered saline) was made by dissolving 5 PBS tablets into 1000 ml millipore water. Cytospin slides were soaked in PBS. Endogenous peroxidase activity was blocked by treating slides with hydrogen peroxide/PBS (2 ml 30% H2O2+30 ml PBS) for 10 min. Slides were rinsed with PBS one time. Non-specific binding sites were blocked by incubating with normal serum matching source of secondary antibody (i.e. if secondary antibody is biotinylated goat-anti-mouse, used normal goat serum) at room temp. for 15 min. in a humidified environment. Excess serum was shaken from slides and placed 100 ul of primary antibody on slide, making sure cells are covered with liquid and incubated in humidified environment, room temp, for one hour. Negative control slides were incubated with normal serum for this hour. Slides were rinsed 3 times with PBS. Slides were incubated with biotinylated antibody reactive against the primary antibody (i.e. if primary antibody is mouse-anti-human, use a biotinylated goat-anti-mouse antibody) for 1 hour in humidity. Slides were rinsed 3 times with PBS. Slides were incubated with streptavidin-peroxidase, 2 drops/slide, for 30 min. in humidity. Slides were rinsed 3 times with PBS.
as §1
Culture of Bulk PBMNC: PBMNC cells were cultured in X-VIVO 15™ supplemented with 2 mM L- glutamine. Cultures were initiated at 5×^05 cells/ml in PL2417 gas-permeable containers (20 ml). GM-CSF and IL-4 were added to the cultures at final concentrations of 50 ng/ml and 1000 U/ml or non-cytokine additives such as Vitamin D3 at 2.5 uM, Vitamin E at 0.1%, Linoleic Acid at 5 ug/ml, or Ca++ Ionophore at 10 mM. Addition and subtraction of cells, media, and growth factors to and from PL2417 gas-permeable containers was accomplished by spiking a Sampling Site Coupler into the sample port of the container followed by use of syringes and needles. Cells were cultured in a 5% CO2, ambient O2, 37° C. humidified incubator for 7 days.
as §2
The S100 protein is a nerve cell protein that has been associated with dendritic cells. In Table 47, at day 7 of culture, the highest percent of S100+ cells was present in the GM-CSF/IL-4 culture (13%).

[3] = test system: T cells; experiment: Allogeneic MLR with bulk PBMNC cultures grown with non-cytokine additives
Description: MLR's were setup using T cells as responders and dendritic cell enriched cultures as antigen presenters. Sheep red blood cells were prepared and used to erythrocyte rosette T cells from a MNC preparation as described in “Current Protocols in Immunology”, John Wiley & Sons Inc, 1995. Vol. 2, 7.2.1-7.2.4. Erythrocyte+(E+ ) T cells were resuspended to 1×10^6 cells/ml in RPMI 1640/10% FCS. Dendritic cells were resuspended to 1×10^6 cells/ml in RPMI 1640/10% FCS and mitomycin C was added at 25 ug/ml to inhibit proliferation. The tubes were incubated at 37° C. for 30 min. then washed 3 times with PBS-CMF/1% HA. […] […] The appropriate control wells were also prepared. Plates were incubated for 4 or 5 days at 37° C.
Each well was pulsed with 1 uCi of ^3H-thymidine in RPMI 1640/10% FCS. Plates were incubated overnight at 37° C.
Plates were harvested onto glass fiber filter strips using a cell harvester. Discs were placed into scintillation vials containing scintillation cocktail and samples were counted using a beta radiation counter.
as §2
The functional capacity of cultured cells to induce T cell proliferation was measured in an allogeneic MLR. […] At the greatest ratio of 1:100, the differences in capacity to induce T cell proliferation is marginal between the GM-CSF/IL-4 cultured cells and the non-cytofine additive cultured cells.

CCCCC/C=C\C/C=C\CCCCCCCC(=O)O [Linoleic Acid]
% S100+ ([1]; Day 4, with GM-CSF present): 12.00%
% S100+ ([1]; Day 4, without GM-CSF): 20.00%
% S100+ ([1]; Day 7, with GM-CSF present): 26.00%
% S100+ ([1]; Day 7, without GM-CSF): 25.00%
percentage of S100+ cells ([1]; day 4): 20%
percentage of S100+ cells ([1]; day 7): next highest percentages
percent of S100+ cells [2]: equivalent average percentages
Allogeneic MLR. Increase Over Background Proliferation ([3]; Day 7, Cell Culture:T cell Ratio 1:1): 6.1
Allogeneic MLR. Increase Over Background Proliferation ([3]; Day 7, Cell Culture:T cell Ratio 1:10): 3.1
Allogeneic MLR. Increase Over Background Proliferation ([3]; Day 7, Cell Culture:T cell Ratio 1:100): 1.1
